# Results as given in ChEMBL document CHEMBL1125705, “Imidazo[4,5-b]quinoxaline cyanines as neurokinin antagonists” (J Med Chem, 1991).
# Molecular target: T1, Substance-K receptor (Rattus norvegicus, UniProt P16610)
# T1 sequence (P16610 whole entry): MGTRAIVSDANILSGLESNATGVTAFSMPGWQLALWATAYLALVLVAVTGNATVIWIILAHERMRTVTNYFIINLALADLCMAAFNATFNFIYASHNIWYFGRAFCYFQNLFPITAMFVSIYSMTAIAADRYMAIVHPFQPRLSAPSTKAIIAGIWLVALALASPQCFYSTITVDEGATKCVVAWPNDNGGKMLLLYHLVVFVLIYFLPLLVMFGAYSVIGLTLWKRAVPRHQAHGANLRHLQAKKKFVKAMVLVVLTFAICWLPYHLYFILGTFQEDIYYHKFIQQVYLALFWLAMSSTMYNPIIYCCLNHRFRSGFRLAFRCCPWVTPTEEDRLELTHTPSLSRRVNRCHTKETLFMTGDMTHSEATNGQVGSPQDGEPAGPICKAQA
# Experiment: Binding affinity of compound was evaluated towards tachykinin receptor 2 by using radioligand ([125I]-NKA in rat duodenum
row,SMILES,IC50 [nM]
1,CCn1c(/C=C/C=C2\N(C)c3ccccc3C2(C)C)[n+](CC)c2nc3ccccc3nc21,1700

# Molecular target: Substance-P receptor (Rattus norvegicus, UniProt P14600)
# Sequence (P14600 whole entry): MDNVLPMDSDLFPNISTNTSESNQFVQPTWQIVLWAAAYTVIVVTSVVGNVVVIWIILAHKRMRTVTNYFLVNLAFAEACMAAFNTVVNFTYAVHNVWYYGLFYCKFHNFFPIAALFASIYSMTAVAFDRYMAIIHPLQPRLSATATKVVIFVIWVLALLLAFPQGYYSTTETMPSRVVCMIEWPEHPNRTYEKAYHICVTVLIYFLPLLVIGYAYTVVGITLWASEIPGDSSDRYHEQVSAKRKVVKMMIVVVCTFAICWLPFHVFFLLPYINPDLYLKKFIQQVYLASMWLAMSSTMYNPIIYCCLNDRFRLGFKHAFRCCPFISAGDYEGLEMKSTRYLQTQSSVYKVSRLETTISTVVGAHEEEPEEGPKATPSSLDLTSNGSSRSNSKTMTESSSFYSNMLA
# Experiment: Binding affinity for tachykinin receptor 1 from rat forebrain tissue, [125I]-BH-SP as radioligand
row,SMILES,IC50 [nM]
1,CCn1c(/C=C/C=C2\Sc3ccccc3N2C)[n+](CC)c2nc3ccccc3nc21,700
2,CCOC(=O)CCC[n+]1c(/C=C/C=C2/N(C)c3ccccc3C2(C)C)n(CC)c2nc3ccccc3nc21,850
3,CCn1c(/C=C/C=C/N2CCCC2)[n+](CC)c2nc3ccccc3nc21,> 10000
4,CCn1c(/C=C/C=C2/N(C)c3ccccc3C2(C)C)[n+](CCCO)c2nc3ccccc3nc21,350
5,CCn1c(/C=C/C=C2/N(C)c3ccccc3C2(C)C)[n+](CC)c2nc3cc(Cl)c(Cl)cc3nc21,1100
6,CCn1c(/C=C/C=C2/N(C)c3ccccc3C2(C)C)[n+](CCCC(=O)O)c2nc3ccccc3nc21,1400
7,CCn1c(/C=C/C=C2/N(C)c3ccccc3C2(C)C)[n+](CCCOC(C)=O)c2nc3ccccc3nc21,410
8,CCn1c(/C=C/C=C2/N(C)c3ccccc3C2(C)C)[n+](CCCN(C)C)c2nc3ccccc3nc21,1300
9,CCn1c(/C=C/C=C2/N(C)c3ccccc3C2(C)C)[n+](CC(N)=O)c2nc3ccccc3nc21,2000
10,CCN1/C(=C/C=C/c2n(CC)c3nc4ccccc4nc3[n+]2CC)C(C)(C)c2ccccc21,390
11,CCn1c(/C=C/C=C2/N(CCO)c3ccccc3C2(C)C)[n+](CC)c2nc3ccccc3nc21,1000
12,CCn1c(/C=C/C=C2\C3C=CCc4cccc(c43)N2C)[n+](CC)c2nc3ccccc3nc21 (stereo not given),850
13,CCn1c(/C=C/C=C2/N(CC(=O)N(C)C)c3ccccc3C2(C)C)[n+](CC)c2nc3ccccc3nc21,2600

# Molecular target: T2, Neuromedin-K receptor (Rattus norvegicus, UniProt P16177)
# T2 sequence (P16177 whole entry): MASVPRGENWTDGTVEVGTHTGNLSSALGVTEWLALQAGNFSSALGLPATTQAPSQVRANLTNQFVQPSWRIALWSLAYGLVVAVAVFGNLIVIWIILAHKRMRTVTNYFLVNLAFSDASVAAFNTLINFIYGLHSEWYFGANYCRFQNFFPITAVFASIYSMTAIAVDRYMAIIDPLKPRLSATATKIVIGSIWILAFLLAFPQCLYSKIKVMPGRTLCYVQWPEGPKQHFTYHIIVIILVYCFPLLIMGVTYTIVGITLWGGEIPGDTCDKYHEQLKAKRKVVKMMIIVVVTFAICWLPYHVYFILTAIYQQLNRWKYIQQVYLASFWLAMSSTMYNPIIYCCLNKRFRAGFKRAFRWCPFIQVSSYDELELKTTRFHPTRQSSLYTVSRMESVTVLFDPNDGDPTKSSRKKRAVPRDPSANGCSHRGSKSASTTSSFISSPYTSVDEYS
# Experiment: Binding affinity of compound was evaluated towards tachykinin receptor 3 by using radioligand [[…]]eledoisin in rat cortex
row,SMILES,IC50 [nM]
1,CCn1c(/C=C/C=C2\N(C)c3ccccc3C2(C)C)[n+](CC)c2nc3ccccc3nc21,3300
